Experimental data: US20020035061A1, “COMPOSITIONS AND METHODS FOR TREATING INFECTIONS USING CATIONIC PEPTIDES ALONE OR IN COMBINATION WITH ANTIBIOTICS” (priority 1996, published 2002)

What was measured:
[1] = test system: MCF-7ADR, breast carcinoma, multidrug resistant; assay: Cell death by Cytotox (Promega) lactate dehydrogenase release; assay type: cell-based; settings: LDH release
Summary of the method: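 Cell death in each cell line was measured as lactate dehydrogenase release using the Cytotox kit after exposure to APO-peptides or parent peptides.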

[2] = test system: a bacterial strain; assay: Killing curves, combination of cationic peptide and antibiotic agent; assay type: cell-based; settings: in combination with vancomycin, FIG. 3E
Protocol: As used herein, “synergy” refers to the in vitro effect of administration of a combination of a cationic peptide and antibiotic agent such that (I) the fractional inhibitory concentration (FIC) is less than or equal to 0.5 in an FIC assay described herein; or (2) there is at least a 100-fold (21og10) increase in killing at 24 hours for the combination as compared with the antibiotic agent alone in a time kill curve assay as described herein.
Time kill curves resulting from combination of cationic peptide and antibiotic agent are compared to that resulting from agent alone.
The assay is performed as described above except that duplicate tubes are set up for each concentration of the antibiotic agent alone and of the combination of antibiotic agent and cationic peptide.

Row | Sequence | LC50 ± S.E., MCF-7 ADR [1] | killing by combination compared with peptide or antibiotic agent alone [2]
1 | ILKKWPWWPWRRK [MBI 11CN] | 17 ± 1 µg/mL | 
2 | KWKSFIKKLTSAAKKVVTTAKPLISS [MBI 26] |  | greater killing than either peptide or antibiotic agent alone
